Source: article PMC4490784, “Compensatory induction of MYC expression by sustained CDK9 inhibition via a BRD4-dependent mechanism” (eLife, 2015)

Tested on: MYC protein in HeLa cells
Assay: Immunoblotting of MYC protein in HeLa cell lysates
Format: cell-based, human
Settings: for effect on MYC induction by i-CDK9: pretreatment before i-CDK9
Protocol: Figure 3. Induction of MYC mRNA production in response to sustained inhibition of CDK9 by i-CDK9 and the requirement of MYC's natural genomic structure in this process. (A) The indicated tumor cell lines were treated with i-CDK9 (0.5 μM) for 2–16 hr and the MYC mRNA levels, which were divided by those in the DMSO-treated cells and averaged from three independent replicates of DNA microarray analysis, were shown as log2 values. (B) HeLa cells were treated with the indicated concentrations of i-CDK9 for 8 hr and the various proteins in the total cell lysates were detected by immunoblotting as indicated. Quantifications of the levels of MYC protein and Ser2-phosphoryalted Pol II (pSer2) in the lysates were shown above and below the immunoblots, respectively. […] The levels of the indicated proteins were examined by immunoblotting. (G) A HeLa-based cell line containing the stably transfected, doxycycline (Dox)-inducible MYC-F-expressing plasmid driven by the CMV promoter was pretreated with (+) or without (−) Dox prior to incubation with i-CDK9 or DMSO. MYC and MYC-F expressed from the endogenous MYC locus and the transfected plasmid, respectively, were detected by immunoblotting. DOI: http://dx.doi.org/10.7554/eLife.06535.007 Figure 3—figure supplement 1. Biphasic response of MYC mRNA production throughout the course of CDK9 inhibition by i-CDK9. DOI: http://dx.doi.org/10.7554/eLife.06535.008 [drawing 2] Figure 3—Figure supplement 2. […] DOI: http://dx.doi.org/10.7554/eLife.06535.009 [drawing 3] TEXT PRINTED IN THE PICTURE: (B) i-CDK9: Fold increase in MYC protein: 1.0 (i-CDK9 (μM): 0); Fold increase in MYC protein: 1.2 (i-CDK9 (μM): 0.01); Fold increase in MYC protein: 1.7 (i-CDK9 (μM): 0.03); Fold increase in MYC protein: 3.6 (i-CDK9 (μM): 0.1); Fold increase in MYC protein: 5.2 (i-CDK9 (μM): 0.3); Fold increase in MYC protein: 5.5 (i-CDK9 (μM): 1.0) | (C) i-CDK9: Fold increase in MYC protein: 1.0 (0.3 μM i-CDK9 (h): 0); Fold increase in MYC protein: 0.9 (0.3 μM i-CDK9 (h): 1); Fold increase in MYC protein: 1.1 (0.3 μM i-CDK9 (h): 2); Fold increase in MYC protein: 1.2 (0.3 μM i-CDK9 (h): 4); Fold increase in MYC protein: 3.3 (0.3 μM i-CDK9 (h): 8)
First, the induction of MYC protein level was confirmed in HeLa cells treated with i-CDK9. […] It took 1.0 µM i-CDK9 to cause up to 85% reduction in pSer2. In a separate time-course analysis, the 8-hr incubation with i-CDK9 (0.3 μM) induced the MYC level by 3.3-fold, whereas the same condition reduced the pSer2 level by only 40% (Figure 3C). Thus, MYC expression was highly responsive to i-CDK9 treatment and occurred at a time point earlier and drug concentration lower than those required to achieve a significant suppression of Ser2 phosphorylation on the Pol II CTD.

SMILES	effect on MYC induction by i-CDK9	MYC protein level (e.g. 4 hr, e.g. 0.1 μM)
Cc1sc2c(c1C)C(c1ccc(Cl)cc1)=N[C@H](CC(=O)OC(C)(C)C)c1nnc(C)n1-2 [ctl., reference compound]	ineffective	
Cc1sc2c(c1C)C(c1ccc(Cl)cc1)=N[C@@H](CC(=O)OC(C)(C)C)c1nnc(C)n1-2 [JQ1, reference compound]	completely abolished	
CN1CC[C@H](c2c(O)cc(O)c3c(=O)cc(-c4ccccc4Cl)oc23)[C@H](O)C1 [Flavopiridol, flavopiridol, reference compound]		significantly elevated
